Results on six compounds are retold here after patent US20180072675A1, “ANTIMICROBIAL PYRIDINOHYDRAZIDE AND HYDRAZOMETHYLPYRIDINE-BASED AGENTS” (Board of Supervisors of Louisiana State University and …, priority 2015, published 2018).

The structures appear in SMILES notation. ≈ marks a conversion by molar mass, not a printed value. Entries after “also recorded” stand apart in the source; their conditions may differ. Like-named read-outs stand apart in the source and are kept apart here.

In data set [1] the test system is Candida glabrata (ATCC Accession No. 48435). The experiment in a line: MIC80 fungal growth inhibition, C. glabrata ATCC 48435. Conditions: for MIC80: Nakaseomyces glabratus. Type of data set: cell-based. The method in brief: (§1)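 Broth microdilution per CLSI M27-A3 in HEPES-buffered RPMI-1640, against C. albicans ATCC 10231, C. glabrata ATCC 48435 and azole-susceptible (TW1) and azole-resistant (TW17) clinical isolates from one AIDS patient. MIC80 read visually as lowest concentration inhibiting >80% growth versus 1% DMSO controls.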

In data set [2] the test system is C. albicans clinical isolate 1 (TW1). Kind of data set: MIC80 fungal growth inhibition, clinical isolate TW1. Type of data set: cell-based, Candida albicans. The following applies: for MIC80: Candida albicans, read-out: MIC80 TW1. The essentials:
as §1

The next data set concerns Candida strain TW17. The experiment in a line: Time-kill assay. The data set is classed as cell-based, Candida albicans. Conditions: for Cidal vs Static: four times the MIC for TW17, 48 h; for colonies observed in time-kill assay: after 24 h. Here is the method: FIG. 9 illustrates time-kill assays, for representative analogs that were active against the azole-resistant TW17, to determine the cidal or static nature of the analog tested. 100 μl of each sample was spread onto YM agar plates with a sterile bent spreading rod. Plates were incubated at 35° C. overnight and colonies were then counted on each plate.
One of the objectives of this study was to determine the cidal or static nature of the analogs that were active against such as TW17, the azole-resistant clinical isolate. Azoles affect Candida spp. by inhibiting ergosterol biosynthesis, and ultimately prevent their reproduction. This effect has led to the classification of azoles as fungistats. Determining the fungistatic or fungicidal nature of the synthesized compounds of the present disclosure allows a comparison to azoles, in addition to improving the understanding of how the structural motifs might lend toward an alternate mechanism of action. Therefore, time-kill assays were performed using the representative analogs that were active against the azole-resistant TW17 at concentrations at or below 8 μg/mL.
Solid drugs were dissolved in DMSO to a concentration of 10 mg/ml. This stock solution was then further diluted in water to the desired experimental concentration, determined to be four times that of the MIC for the Candida strain TW17 (as reported in the Tables).
Individual colonies of TW17 were suspended in 5 ml of sterile water and adjusted to achieve a McFarland reading between 0.08 and 0.12. The inoculum was then further diluted in sterile water at a ratio of 1:100. Three […] tissue culture tubes were prepared by combining 2.5 ml of above diluted inoculum, 21.7 ml of HEPES buffered RPMI-1640 media, and 800 μl of experimental drug dilution. A “Growth Control” tube was prepared by combining 2.5 ml of inoculum, 21.7 HEPES buffered RPMI-1640 media, and 800 μl of water-DMSO solution equal to the DMSO concentration of the experimental drug dilution. A “Sterile Control” tube was prepared by combining 24.2 ml of HEPES-buffered RPMI-1640 media and 800 μl of water-DMSO solution as in the “Growth Control”. All tubes were incubated for 48 hours at 35° C., 50 rpm. 500 μl samples were taken from the tubes at time points of predetermined intervals during this incubation.
Time points for the “Kill-Curve” and “Growth Control” tubes were taken at 0, 1, 2, 4, 6, 8, 24, and 48 h after the start of incubation. Time points for “Sterile Control” were taken at 0 and 48 hours. Each time point sample was serially diluted 1:10 in sterile 0.9% NaCl solution up to 5 times. 100 μl of each sample was spread onto YM agar plates with a sterile bent spreading rod. Plates were incubated at 35° C. overnight and colonies were then counted on each plate. Colonies on plates from diluted time points were used to estimate uncountable undiluted samples. The number of colonies in undiluted samples was estimated to be 10^n times greater than the diluted sample, where n was the number of dilutions made.

The subject of the next data set is Hep G2 (liver) cells. Kind of data set: Mammalian cell toxicity, Promega CellTiter 96, liver cells. The data set is classed as cell-based. The following applies: 24 h. As for the experimental part:
Cytotoxicity was determined using non-cancerous Vero cells (kidney-african green monkey) and liver cells (Hep-2G) in accordance with Promega CellTiter 96 Non-Radioactive Cell Proliferation Assay (cat # G4000). Compounds were diluted in media and all assays were done in triplicate. Average values are presented, with ±SD. Cells were incubated in the presence of the compounds for 24 h at 37° C. and 5% CO2. Tetrazolium dye solution was added to each well and allowed to incubate for 1-4 h. Solubilization/Stop solution was added and allowed to sit at room temperature for 1 h. Formazan product was scored spectrophotometrically with an automatic plate reader set at 570 nm. Positive control wells for cell death were briefly treated with 0.1% saponin, immediately prior to the addition of dye solution. Wells containing 1% DMSO and no drug were used as a negative control and the average absorbance at 570 nm were set to 100%. The percent of cells viable were calculated as a ratio between the average absorption at 570 nm of the drug containing wells/average absorption at 570 nm of the control (no drug). Ratios were multiplied by 100 to give the values as a percentage as expressed on the y-axis.
Cytotoxicity studies were performed in accordance with Promega CellTiter 96 Non-RadioactivCell Proliferation Assay (cat #G4000). All cytotoxicity studies used a negative control (wells of either kidney or liver cells containing 1% DMSO but lacking the analog), a positive control (wells of either kidney or liver cells treated with the known cytotoxic agent, saponin) and the serial dilutions of the novel analogs. All control (negative) wells were normalized to 100% viable cells to accurately show the percentage of either liver or kidney cells that remained alive and viable following either overnight incubation with the analogs or 5-minute treatment with 0.1% saponin.

The next data set deals with Candida spp. The experiment in a line: MIC studies, statements pooled over several isolates. Type of data set: cell-based, Candida albicans, Candida glabrata. Conditions: for antifungal activity (in words): overall over the isolates tested. As for the experimental part: The antifungal activity of the pyridinohydrazide and hydrazomethylpyridine derivatives described in the s were evaluated in vitro using Candida albicans (ATCC Accession No. 10231) and Candida glabrata (ATCC Accession No. 48435). In addition, the compounds were evaluated for activity against two previously-described clinical isolates of C. albicans known to have developed azole-resistance. These isolates were obtained over a two year period from a single AIDS patient and the development of the azole-resistance mechanisms have been extensively characterized (White T C. Antimicrob. Agents Chemother. (1997) 41: 1482-1487). MIC assays were performed on the clinical isolates 1 and 17 (annotated TW1 and TW17, respectively), where isolate 1 was used as an azole-susceptible control and isolate 17 was considered azole-resistant. All assays were done in accordance with NCCLS reference documents (Clinical Laboratory and Standards Institute. Reference method for Broth Dilution Antifungal Susceptibility Testing of Yeasts: Approved Standard. M27-A3 2010; 28). The results of these screenings are summarized in Tables 1-9 (Examples 20-27) as the minimum concentrations that inhibited more than 80% of fungal growth (MIC80) as compared to positive controls containing 1% DMSO. Assays were performed in HEPES-buffered RPMI-1640 media. All MIC screens used a visual scoring method as opposed to spectroscopic analysis, due to the altered absorbance spectra of many of the compounds.

Where [3] appears, read: ATCC48435, Azole-resistant, >80% growth inhibition, visual scoring, read-out: MIC80 C. glabrata ATCC No. 48435.
[4] abbreviates: Azole-susceptible, >80% growth inhibition, visual scoring.

As usually defined, the MIC80 is an inhibitory concentration at the 80% level, which refers to growth in some studies and to a panel of isolates in others. For `Cc1ccc(O)c(/C=N/NC(=O)c2ccccn2)c1` [AR2, (E)-N′-(2-Hydroxy-5-methylbenzylidene)picolinohydrazide], the figures for the MIC80 in data set [1] (setting [3]) and in data set [2] (setting [4]) were 2 µg/mL (≈ 7.83 µM) and 4 µg/mL (≈ 15.7 µM), respectively. Moreover, the “Cidal vs Static” value with Candida strain TW17 is “Static”. The cell toxicity entry with Hep G2 (liver) cells (100× MIC) is given as “minimal toxicity”.
Turning to `O=C(NN=Cc1cc([N+](=O)[O-])ccc1O)c1cccnc1` [AR12], in data set [2] (setting [4]), the “MIC80 TW1” value stood at 8 µg/mL (≈ 27.9 µM). Moreover, the “Cidal vs Static” value in the data set on Candida strain TW17 was “Static”. Moreover, the “activity against azole-resistant isolates (in words)” value with Candida spp. (azole-resistant isolates) is recorded as “less active”.
On to `O=C(NN=Cc1cc([N+](=O)[O-])ccc1O)c1ccncc1` [AR18], for which the “MIC80 C. glabrata ATCC No. 48435” value in data set [1] (Azole-resistant, >80% growth inhibition, visual scoring) is 31 µg/mL (≈ 108 µM). Besides, the “MIC80 TW1” value in data set [2] (setting [4]) was found to be 8 µg/mL (≈ 27.9 µM). Also, the “Cidal vs Static” value in the data set with Candida strain TW17 is “Static”. Moreover, the cell toxicity result in the data set on Hep G2 (liver) cells (100× MIC) is recorded as “minimal cytotoxicity”; in the data set with Hep G2 (liver) cells (through 10× MIC) it was “not toxic”. The “antifungal activity (in words)” value with Candida spp. is “most potent”.
As for `O=C(N/N=C/c1cc(Br)ccc1O)c1ccc[n+]([O-])c1` [AR27], the MIC80 in data set [1] (setting [3]) was 4 µg/mL (≈ 11.9 µM); in data set [2] (setting [4]), 8 µg/mL (≈ 23.8 µM). In addition, the “Cidal vs Static” value with Candida strain TW17 was “fungistatic; also recorded: Static”. In the data set with Hep G2 (liver) cells (5× MIC), the cell toxicity result is “cytotoxic”.
Consider `C(=N\Nc1ccccc1)/c1cccnc1` [AR44], for which the MIC80 in data set [1] (setting [3]) and in data set [2] (setting [4]) was 16 µg/mL (≈ 81.1 µM) in each case. The “colonies observed in time-kill assay” value in the data set on Candida strain TW17 is listed as “no observed colonies”. Further, in the data set with Candida strain TW17, the “Cidal vs Static” value is listed as “fungicidal; also recorded: Cidal”. For the same compound, the cell toxicity result with Hep G2 (liver) cells (100× MIC) was “toxic”; in the data set with Hep G2 (liver) cells (through 10× MIC), “no cell toxicity”. The “antifungal activity (in words)” value in the data set with Candida spp. is listed as “moderate antifungal activity”.
Regarding `C(=N\Nc1ccccc1)/c1ccncc1` [AR48], the MIC80 in data set [1] (ATCC48435, read-out: MIC80 C. glabrata ATCC No. 48435) worked out at 4 µg/mL (≈ 20.3 µM); in data set [2], 16 µg/mL (≈ 81.1 µM). Also, the “colonies observed in time-kill assay” value with Candida strain TW17 is given as “no observed colonies”. Further, the “Cidal vs Static” value in the data set with Candida strain TW17 was “fungicidal; also recorded: Cidal”. The cell toxicity result is reported as “toxic” with Hep G2 (liver) cells (100× MIC) and “no cell toxicity” in the data set with Hep G2 (liver) cells (through 10× MIC). In the data set on Candida spp., the “antifungal activity (in words)” value was “moderate antifungal activity”.
